The values that follow come from patent US20060166934A1, “Composition comprising phytosphingosine derivatives for apoptosis induction” (Tae-Yoon Kim, priority 2002, published 2006).

Read-outs that look alike come from different tables or passages of the source.

As a reminder, the IC50 is the concentration at which inhibition is half-maximal. The term viability denotes a read-out of living cells in per cent, often relative to untreated cells.

Data set [1] in a line: MTT assay, cytotoxicity in immune cells separated from spleen of mice. It counts as cell-based. Particulars: BDF, mouse. On the procedure: (§1) The effect of the composition of the present invention on the cytotoxicity in immune cells (T cells, B cells, macrophages, monocytes, etc.) was examined. The spleen was removed from normal mice (BDF) and single cells were obtained from the spleen by mechanical aggregation method. And mononuclear cells containing T cells, B cells, macrophages and monocytes were isolated from single cells by density gradient centrifugation method using Ficoll Hypaque. Briefly, single cells were treated with PBS and overlayed on Ficoll Hypaque and centrifuged at 1500 rpm for 30 min. After centrifugation, the cells around the boundary of the Ficoll-Hapaque were collected and washed three times with PBS. The isolated cells were cultured for 24 hours in the presence of 1, 10, 50 and 100 μM of NAPS, TAPS, and PS to examine the effect of cytotoxicity, i.e. the degree of proliferation of the cells. C2-ceramide was used as control. The medium used in this experiment was RPMI 1640 suplemented with 10% of FBS and 100 μg/ml of penicillin and streptomycin.
On the technique in general: Tetrazolium dyes change colour on reduction, which living cells bring about.

The nature of data set [2]: MTT assay, combined treatment with UVB irradiation. It counts as cell-based, human. Particulars: human, HaCaT cells, HaCaT, read-out: Cell viability. The gist of the method: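 HaCaT cells in PBS irradiated with 200 J/m^2 UVB, then returned to DMEM and treated with test compounds for 24 h. Viability by MTT (2 mg/ml, 4 h), formazan dissolved in DMSO and read at 540 nm.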

In data set [3] the test system is immune cells (T cells, B cells, macrophages, monocytes) from spleen of mice. Briefly: MTT assay, cytotoxicity in immune cells separated from spleen of mice. In kind it is cell-based. Particulars: mouse spleen immune cells, 24 hours, FIG. 2; read-out: IC50 (cytotoxicity). On the procedure:
as §1

Data set [4] deals with peripheral blood mononuclear cells (PBMC). Nature of the data set: MTT assay, cytotoxicity in peripheral blood mononuclear cells. It counts as cell-based, human. Particulars: FIG. 3. On the procedure: The effects of the composition of the present invention on the cytotoxicity in immune cells (T cells, B cells, macrophages, monocytes, etc.) obtained from human blood were examined. The blood was obtained from healthy volunteers and PBMC from the blood by mechanical aggregation method. And mononuclear cells containing T cells, B cells, macrophages and monocytes were isolated from single cells by density gradient centrifugation method using Ficoll Hypaque. Briefly, single cells were treated with PBS and overlayed on Ficoll Hypaque and centrifuged at 1500 rpm for 30 min. After centrifugation, the cells around the boundary of the Ficoll-Hapaque were collected and washed three times with PBS. […] And RPMI with 10% of serum was used as a medium. The isolated cells were cultured for 24 hours in the presence of 1, 10, 50 and 100 μM of NAPS, TAPS, and PS to examine the effect of cytotoxicity, i.e. the degree of proliferation of the cells. C2-ceramide was used as control.

Data set [5] deals with HaCaT cells. Nature of the data set: Cell cycle by flow cytometric analysis. In kind it is cell-based, human. As to conditions: FIG. 8. On the procedure: The effects of the compositions of the present invention on the cell cycle are reviewed. In the flow cytometric analysis, the cells are treated with trypsin according to each time interval, collected and washed with PBS. They are fixed by using 80% ethanol, and propidium iodide and RNase are added to them. Thereafter, the cell cycle is analyzed by using a flow cytometer.
A general note: A flow cytometer gives signals particle by particle.

In data set [6] the test system is HaCaT cells. Briefly: Mitosis by immunofluorescence (β-tubulin, DAPI). As to conditions: 30 μM, 24 hours versus 12 hours, FIG. 9. It counts as cell-based, human. On the procedure:
Next, the cell cycle is observed according to the immunofluorescence method. In order to look into from which step among G2/M phase the induction of apoptosis by TAPS is induced, mitosis is observed by using β-tubulin. HaCaT cells are cultured on a dish with a cover slip and treated with TAPS (30 μM). The cells are washed with PBS at each time interval, fixed with 5% paraformaldehyde for 15 minutes, and reacted with β-tubulin antibody (1:100) for 1 hour. They were washed with PBS and reacted with Cy3-conjugated anti-mouse IgG secondarily. For DNA staining, 0.3 μg/ml of DAPI (Sigma) is added to the cells, which are observed by using a fluorescent microscope.

`CCCCCCCCCCCCCC[C@@H](O)[C@@H](O)[C@H](CO)NC(C)=O` [NAPS, N-acetyl phytosphingosine] displayed an IC50 at 24 h in data set [1] of approximately 75 µM. For the same molecule, the viability at 24 h, 1 µM is 27 ± 5.8% in data set [2] (1 μM + UVB 200 J/m^2, 24 hours) and 130 ± 10% in data set [2] (1 μM, no UVB, 24 hours). For the same molecule, the viability at 24 h, 3 µM in data set [2] (3 μM + UVB 200 J/m^2, 24 hours) was determined as 17 ± 1.6%; in data set [2] (3 μM, no UVB, 24 hours) it was 117 ± 9.7%. Besides, the viability at 24 h, 5 µM in data set [2] (5 μM + UVB 200 J/m^2, 24 hours) stood at 11 ± 1.3%; in data set [2] (5 μM, no UVB, 24 hours), 110 ± 14%. For the same molecule, the viability at 24 h, 10 µM in data set [2] (10 μM + UVB 200 J/m^2, 24 hours) worked out at 1 ± 0.1%; in data set [2] (10 μM, no UVB, 24 hours) it was 67 ± 12%.

Take tetraacetyl phytosphingosine [TAPS]: in data set [3], the IC50 worked out at 100 µM. For the same molecule, the “concentration that shows the strong cytotoxicity” value in data set [4] (human PBMC) was determined as 50 µM. Moreover, the “cytotoxicity to PBMC” value in data set [4] (up to 100 μM, 24 hours) is “strong cytotoxicity”. In the data set with HaCaT cells [5] (thereafter up to 24 hours), the G2/M phase result was “reduced continuously” and the “sub G1 phase (apoptotic cells)” value is “increased relatively”. Besides, in the data set with HaCaT cells [5] (up to 12 hours after treating), the G2/M phase entry was “increased relatively” and the S phase result was “reduced”. Also, the “cells with chromosomes condensed” value in the data set with HaCaT cells [6] is “more cells with chromosomes condensed are observed 24 hours after treating with TAPS than 12 hours after”.
